The record followed here is PubChem BioAssay (NCI).

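Cultured in 96-well plates, cells were exposed to test compound for 48 hours across five concentrations. GI50 marks 50% less growth. TGI is the concentration that stops growth completely.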

Among the test systems are COLO 205 colon; RPMI-8226 leukemia; A549 NSCLC; HOP-92 NSCLC; HL-60(TB) leukemia; NCI-H23 lung; NCI-H460 lung; NCI-H226 lung; LOX IMVI melanoma; SN12C renal.
Experiment in all cases: NCI-60 cell line screen, 48 h

Turning to `COCc1c(-c2ccc(NC(=O)Nc3cc(C(F)(F)F)ccc3F)c(F)c2)c2c(N)ncnn2c1CN1CCOCC1`, the GI50 in the assay on COLO 205 colon was 1.05 µM; in the assay on RPMI-8226 leukemia, 1.91 µM; in the assay with A549 NSCLC it was 2.53 µM; with HOP-92 NSCLC, 0.382 µM; with HL-60(TB) leukemia, 3.46 µM; in the assay on NCI-H23 lung it was 1.61 µM. For the same compound, the GI50 is 2.24 µM in the assay on NCI-H460 lung, 0.0747 µM in the assay with NCI-H226 lung, 1.36 µM with LOX IMVI melanoma and 1.39 µM in the assay on SN12C renal. In addition, the TGI in the assay with COLO 205 colon is 2.71 µM; with RPMI-8226 leukemia, 7.85 µM; in the assay on A549 NSCLC, > 10 µM; with HOP-92 NSCLC, 5.97 µM; with HL-60(TB) leukemia it was > 10 µM; in the assay on NCI-H23 lung it was 5.18 µM. Also, the TGI was 9.74 µM with NCI-H460 lung, 5.25 µM in the assay on NCI-H226 lung, 5.77 µM in the assay on LOX IMVI melanoma and > 10 µM in the assay on SN12C renal.

Take `CCN(CC)CCn1c2ccccc2c(=O)c2c(OC)ccc(OC)c21`: the TGI in the assay on COLO 205 colon, in the assay with RPMI-8226 leukemia, in the assay on A549 NSCLC, in the assay with HOP-92 NSCLC, in the assay on HL-60(TB) leukemia and in the assay on NCI-H23 lung was > 100 µM throughout. The TGI in the assay on NCI-H460 lung is > 100 µM; with NCI-H226 lung, 97.3 µM; in the assay on LOX IMVI melanoma it was > 100 µM; in the assay with SN12C renal, > 100 µM.

Consider `COc1cc(/C=C2/C(=O)N(C(=O)OCc3ccccc3)C(Cc3cc(OC)c(OC)c(C)c3OC)C(=O)N2Cc2ccccc2)c(OC)c(C)c1OC` (centres undefined), for which the TGI in the assay on COLO 205 colon, in the assay on RPMI-8226 leukemia, in the assay on A549 NSCLC, in the assay with HOP-92 NSCLC, with HL-60(TB) leukemia and in the assay on NCI-H23 lung was > 100 µM each time. For the same compound, the TGI is > 100 µM with NCI-H460 lung, 12.6 µM in the assay on NCI-H226 lung, > 100 µM in the assay on LOX IMVI melanoma and > 100 µM with SN12C renal.

As for `Cc1nccc2c3ccc(OCc4cn(-c5ccc(Cl)cc5)nn4)cc3n(CC(C)C)c12`, the GI50 in the assay with COLO 205 colon was 1.51 µM; in the assay with RPMI-8226 leukemia, 1.09 µM; in the assay with A549 NSCLC, 2.29 µM; in the assay with HOP-92 NSCLC, 1.19 µM; in the assay on HL-60(TB) leukemia it was 0.886 µM; with NCI-H23 lung, 1.88 µM. For the same compound, the GI50 is 2.33 µM in the assay on NCI-H460 lung, 3.47 µM with NCI-H226 lung, 3.63 µM in the assay on LOX IMVI melanoma and 3.69 µM with SN12C renal. The TGI with COLO 205 colon came to 6.8 µM; with RPMI-8226 leukemia it was 3.95 µM; with A549 NSCLC it was 13 µM; with HOP-92 NSCLC it was 13.6 µM; with HL-60(TB) leukemia, 2.07 µM; with NCI-H23 lung it was 17.2 µM. The TGI was 12.9 µM in the assay with NCI-H460 lung, 13.7 µM in the assay with NCI-H226 lung, > 33.3 µM in the assay with LOX IMVI melanoma and > 33.3 µM in the assay with SN12C renal.

For `O=[N+]([O-])c1ccc(Sc2ccncn2)c([N+](=O)[O-])c1`, the GI50 is 2.55 µM in the assay with COLO 205 colon; 2.59 µM in the assay on RPMI-8226 leukemia; 4.3 µM with A549 NSCLC; 1.17 µM with HOP-92 NSCLC; 0.174 µM in the assay with HL-60(TB) leukemia; 2.93 µM in the assay on NCI-H23 lung. Besides, the GI50 was 3.18 µM in the assay with NCI-H460 lung, 7.22 µM with NCI-H226 lung, 1.97 µM in the assay on LOX IMVI melanoma and 3.89 µM with SN12C renal. Besides, the TGI with COLO 205 colon stood at 6.5 µM; with RPMI-8226 leukemia, 8.16 µM; in the assay on A549 NSCLC, 16.4 µM; in the assay on HOP-92 NSCLC it was 2.66 µM; in the assay with HL-60(TB) leukemia it was 0.677 µM; in the assay on NCI-H23 lung it was 9.73 µM. For the same compound, the TGI with NCI-H460 lung was 10.8 µM; in the assay with NCI-H226 lung, 23.1 µM; in the assay with LOX IMVI melanoma, 5.21 µM; with SN12C renal, 15.1 µM.

As to `Nc1c(F)cc(-c2nc3cc(F)ccc3[se]2)cc1Br`, the GI50 in the assay on COLO 205 colon was 0.0536 µM; with A549 NSCLC, 0.137 µM; in the assay on HOP-92 NSCLC, 0.526 µM; in the assay with HL-60(TB) leukemia it was > 100 µM; with NCI-H23 lung, 0.0414 µM; in the assay with NCI-H460 lung, 0.0189 µM. The GI50 with NCI-H226 lung is 0.0484 µM; in the assay with LOX IMVI melanoma it was 14.1 µM; in the assay on SN12C renal it was 17.7 µM. Further, the TGI is > 100 µM with COLO 205 colon; > 100 µM with RPMI-8226 leukemia; > 100 µM with A549 NSCLC; 19.4 µM with HOP-92 NSCLC; > 100 µM in the assay on HL-60(TB) leukemia; 20 µM with NCI-H23 lung. Besides, the TGI with NCI-H460 lung is > 35.2 µM; with NCI-H226 lung, 2.06 µM; in the assay with LOX IMVI melanoma, > 100 µM; in the assay on SN12C renal, > 100 µM.

For `COc1ccc(N(C)c2nc(Cl)nc3cnn(C)c23)cc1`, the GI50 with COLO 205 colon is < 0.01 µM; with RPMI-8226 leukemia, < 0.0177 µM; with A549 NSCLC, < 0.0117 µM; in the assay on HOP-92 NSCLC, < 0.01 µM; in the assay on HL-60(TB) leukemia, < 0.01 µM; in the assay on NCI-H23 lung, < 0.0251 µM. Also, the GI50 was < 0.01 µM in the assay on NCI-H460 lung, < 0.01 µM with NCI-H226 lung, < 0.011 µM in the assay with LOX IMVI melanoma and < 0.0203 µM in the assay with SN12C renal. The TGI was 0.058 µM in the assay with COLO 205 colon; > 100 µM in the assay with RPMI-8226 leukemia; > 100 µM in the assay on A549 NSCLC; 7.95 µM in the assay with HOP-92 NSCLC; < 0.0222 µM with HL-60(TB) leukemia; > 100 µM in the assay on NCI-H23 lung. For the same compound, the TGI in the assay with NCI-H460 lung, in the assay with NCI-H226 lung, in the assay on LOX IMVI melanoma and in the assay with SN12C renal was > 100 µM each time.

In the case of `O=c1cc(-c2ccccc2)[nH]c2cc(Cl)ccc12`, the TGI was 2.82 µM with COLO 205 colon; 10.5 µM in the assay on RPMI-8226 leukemia; > 100 µM in the assay on A549 NSCLC; 57.5 µM in the assay on HOP-92 NSCLC; 0.612 µM with HL-60(TB) leukemia; 4.35 µM in the assay on NCI-H23 lung. The TGI was determined as 14.8 µM in the assay on NCI-H460 lung, 56 µM with NCI-H226 lung, 21.7 µM in the assay on LOX IMVI melanoma and 82.3 µM in the assay with SN12C renal.

Regarding `CCCN1CCC(c2ccc(Nc3nc(Nc4cc(F)ccc4C(N)=O)c4cc[nH]c4n3)c(OC)c2)CC1`, the GI50 in the assay with COLO 205 colon is 0.0183 µM; with RPMI-8226 leukemia, 3.68 µM; in the assay on A549 NSCLC, 0.154 µM; with HOP-92 NSCLC, 0.00586 µM; in the assay on HL-60(TB) leukemia, 0.0565 µM; with NCI-H23 lung, 2.22 µM. Also, the GI50 with NCI-H460 lung is 0.147 µM; in the assay on NCI-H226 lung, 3.83 µM; in the assay on LOX IMVI melanoma, 0.365 µM; with SN12C renal it was 3.62 µM. The TGI with COLO 205 colon amounted to 1.78 µM; with RPMI-8226 leukemia, 12.1 µM; in the assay with A549 NSCLC it was 4.68 µM; in the assay on HOP-92 NSCLC, 0.126 µM; in the assay with HL-60(TB) leukemia, 5.81 µM; in the assay with NCI-H23 lung, 6.5 µM. Moreover, the TGI worked out at 1.43 µM in the assay on NCI-H460 lung, 8.91 µM in the assay on NCI-H226 lung, 5.84 µM with LOX IMVI melanoma and 8.55 µM in the assay on SN12C renal.
